Experimental data: paper PMC4805651, “Inhibition of DNA–Topoisomerase I by Acylated Triterpene Saponins from Pittosporum angustifolium Lodd” (Natural Products and Bioprospecting, 2016)

Experiments:
[1] = molecular target: T1, human topoisomerase I (Homo sapiens, UniProt P11387); test: DNA relaxation assay on human topoisomerase I (gel based, supercoiled pBR322); assay type: biochemical; details: ±SD, n = 2; relaxation of supercoiled pBR322, 37 °C, 30 min, 10 % DMSO; read-out: IC50 [µM] Topo I
T1 construct: purchased Inspiralis Limited, UK (assay run by the vendor as a service)
T1 sequence (P11387 1-765): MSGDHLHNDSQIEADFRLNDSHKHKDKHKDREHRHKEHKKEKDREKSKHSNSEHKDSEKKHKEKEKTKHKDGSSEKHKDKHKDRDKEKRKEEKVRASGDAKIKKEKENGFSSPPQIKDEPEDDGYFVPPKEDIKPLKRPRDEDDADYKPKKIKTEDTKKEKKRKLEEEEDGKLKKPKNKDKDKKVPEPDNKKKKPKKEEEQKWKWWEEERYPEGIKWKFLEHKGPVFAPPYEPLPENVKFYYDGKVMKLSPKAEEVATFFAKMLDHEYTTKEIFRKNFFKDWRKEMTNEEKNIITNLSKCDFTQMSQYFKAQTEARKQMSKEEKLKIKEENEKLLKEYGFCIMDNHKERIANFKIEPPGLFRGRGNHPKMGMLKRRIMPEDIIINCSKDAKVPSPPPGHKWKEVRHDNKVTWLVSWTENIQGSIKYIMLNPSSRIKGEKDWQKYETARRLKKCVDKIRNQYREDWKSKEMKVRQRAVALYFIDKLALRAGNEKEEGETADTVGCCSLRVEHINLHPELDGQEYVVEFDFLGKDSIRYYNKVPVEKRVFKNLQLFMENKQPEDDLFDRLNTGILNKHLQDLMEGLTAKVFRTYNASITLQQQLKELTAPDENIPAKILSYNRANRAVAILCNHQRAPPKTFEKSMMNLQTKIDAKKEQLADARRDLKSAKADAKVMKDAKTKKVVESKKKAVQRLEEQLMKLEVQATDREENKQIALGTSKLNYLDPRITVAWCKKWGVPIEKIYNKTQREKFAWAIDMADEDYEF
Protocol: The relaxation assay on human topoisomerase I was carried out by Inspiralis Limited®, UK, according to their SOP (standard operating procedure). All compounds were dissolved in DMSO and then diluted to yield concentration ranges from 1 nM to 1 mM. […] 1 U (the amount of enzyme required to completely relax the substrate) was incubated with 0.5 µg supercoiled plasmid DNA (pBR322) at 37 °C for 30 min in a 30 µL reaction mixture of 20 mM Tris HCL (pH 7.5), 200 mM NaCl, 0.25 mM EDTA and 5 % glycerol. The reaction was stopped by adding 30 µL chloroform/iso-amyl alcohol (26:1) and 20 µL Stop Dye (40 % sucrose, 100 mM Tris HCl (pH 7.5), 10 mM EDTA, 0.5 μg/mL bromophenol blue) before being loaded on a 0.8 % TAE gel run for 2 h at 80 V. Then bands were visualized by ethidium staining for 10 min and analyzed by documentation equipment (Syngene, Cambridge, UK), gel scanning software (Syngene, GeneTools) and SigmaPlot version 12.3. All assays were carried out in a final DMSO concentration of 10 % and were performed twice.

[2] = tested on: LN-18: human glioblastoma cells; parameters: method as in PMID 24046217, PMID 25069157; details: ±SD, ref [3], [5], [10], read-out: IC50 [µM] Cytotoxicity LN-18; cited from earlier work
[3] = tested on: HaCat: human keratinocyte cells; parameters: method as in PMID 24046217, PMID 25069157; details: ±SD; HaCaT human keratinocyte cells (non-tumorigenic); ref [3], [5], [10]; read-out: IC50 [µM] Cytotoxicity HaCaT; cited from earlier work
[4] = tested on: MCF-7: human breast cancer cells; parameters: method as in PMID 24046217, PMID 25069157; details: ±SD, ref [3], [5], [10], read-out: IC50 [µM] Cytotoxicity MCF-7; cited from earlier work
[5] = tested on: 5637: human urinary bladder carcinoma cells; parameters: method as in PMID 24046217, PMID 25069157; details: ±SD, ref [3], [5], [10], read-out: IC50 [µM] Cytotoxicity 5637; cited from earlier work

SMILES | IC50 [1] | IC50 [2] | IC50 [3] | IC50 [4] | IC50 [5]
CC=C(C)C(=O)OC1C(OC(C)=O)C2(CO)C(CC1(C)C)C1=CCC3C4(C)CCC(OC5OC(C(=O)O)C(OC6OC(CO)C(O)C6O)C(OC6OCC(O)C(O)C6O)C5OC5OC(CO)C(O)C(O)C5O)C(C)(C)C4CCC3(C)C1(C)C(O)C2O (centres unmarked) [Compound 4, IIIA3] | 8.6 ± 0.1 µM | 13.4 ± 0.8 µM | 15.9 ± 1.3 µM | 19.8 ± 2.2 µM | –
CCC(C)C(=O)OC1CC(C)(C)CC2C3=CCC4C5(C)CCC(OC6OC(C(=O)O)C(OC7OC(CO)C(O)C7O)C(OC7OCC(O)C(O)C7O)C6OC6OC(CO)C(O)C(O)C6O)C(C)(C)C5CCC4(C)C3(C)C(O)C(O)C12CO (centres unmarked) [Compound 8] | 2.8 ± 1.1 µM | 3.9 ± 0.1 µM | – | – | –
CC=C(C)C(=O)OC1CC(C)(C)CC2C3=CCC4C5(C)CCC(OC6OC(C(=O)O)C(O)C(O)C6OC6OC(CO)C(O)C(O)C6OC6OC(C)C(O)C(O)C6O)C(C)(C)C5CCC4(C)C3(C)C(O)C(O)C12CO (centres unmarked) [Compound 2, pittangretoside D] | 4.8 ± 2.4 µM | 35.7 ± 5.2 µM | > 118 µM | 36.6 ± 5.7 µM | 17.9 ± 1 µM
CCC(C)C(=O)OC1C(OC(C)=O)C2(CO)C(CC1(C)C)C1=CCC3C4(C)CCC(OC5OC(C(=O)O)C(OC6OC(CO)C(O)C6O)C(OC6OCC(O)C(O)C6O)C5OC5OC(CO)C(O)C(O)C5O)C(C)(C)C4CCC3(C)C1(C)C(O)C2O (centres unmarked) [Compound 7, pittangretoside P] | 4.2 ± 0.2 µM | 7 ± 0.9 µM | 11.2 ± 0.5 µM | 28.7 ± 3.2 µM | –
CC=C(C)C(=O)OC1C(OC(=O)C(C)=CC)C2(CO)C(CC1(C)C)C1=CCC3C4(C)CCC(OC5OC(C(=O)O)C(OC6OC(CO)C(O)C6O)C(OC6OCC(O)C(O)C6O)C5OC5OC(CO)C(O)C(O)C5O)C(C)(C)C4CCC3(C)C1(C)C(O)C2O (centres unmarked) [Compound 9, IIIC4] | 46.5 ± 11.5 µM | 4.6 ± 0.5 µM | 2.2 ± 0.5 µM | 8.9 ± 0.8 µM | –
CCC(C)(OC(C)=O)C(=O)OC1C(OC(C)=O)C(C)(C)CC2C3=CCC4C5(C)CCC(OC6OC(C(=O)O)C(OC7OC(CO)C(O)C7O)C(OC7OCC(O)C(O)C7O)C6OC6OC(CO)C(O)C(O)C6O)C(C)(C)C5CCC4(C)C3(C)C(O)C(O)C21CO (centres unmarked) [Compound 6, pittangretoside O] | 7.5 ± 1.6 µM | 4.4 ± 0.7 µM | 19.2 ± 2.1 µM | 22.9 ± 1.8 µM | –
CC=C(C)C(=O)OC1C(OC(=O)C(C)=CC)C2(CO)C(O)CC3(C)C(=CCC4C5(C)CCC(OC6OC(C(=O)O)C(OC7OC(CO)C(O)C7O)C(OC7OCC(O)C(O)C7O)C6OC6OC(CO)C(O)C(O)C6O)C(C)(C)C5CCC43C)C2CC1(C)C (centres unmarked) [Compound 10, pittangretoside T] | 5 ± 3.3 µM | – | – | – | –
CC=C(C)C(=O)OC1C(OC(C)=O)C(C)(C)CC2C3=CCC4C5(C)CCC(OC6OC(C(=O)O)C(OC7OC(CO)C(O)C7O)C(OC7OCC(O)C(O)C7O)C6OC6OC(CO)C(O)C(O)C6O)C(C)(C)C5CCC4(C)C3(C)C(O)C(O)C21CO (centres unmarked) [Compound 5, pittangretoside N] | 6.5 ± 0.6 µM | 10.4 ± 2.7 µM | 34.1 ± 2.8 µM | 28.7 ± 3.6 µM | –
CCC(C)C(=O)OCC12C(O)CC(C)(C)CC1C1=CCC3C4(C)CCC(OC5OC(C(=O)O)C(OC6OC(CO)C(O)C6O)C(OC6OCC(O)C(O)C6O)C5OC5OC(CO)C(O)C(O)C5O)C(C)(C)C4CCC3(C)C1(C)C(O)C2O (centres unmarked) [Compound 3, pittangretoside F] | 16.8 ± 0.4 µM | – | – | – | > 106 µM
CC=C(C)C(=O)OC1CC(C)(C)CC2C3=CCC4C5(C)CCC(OC6OC(C(=O)O)C(OC7OC(CO)C(O)C7O)C(OC7OCC(O)C(O)C7O)C6OC6OC(CO)C(O)C(O)C6O)C(C)(C)C5CCC4(C)C3(C)C(O)C(O)C12CO (centres unmarked) [Compound 1, pittangretoside A] | 7.5 ± 0.6 µM | 7.6 ± 1.7 µM | 15.2 ± 0.9 µM | 25.7 ± 1.9 µM | 4.1 ± 1 µM
